Consider 13 compounds from US8153674B2, “Organic compounds” (Novartis AG, priority 2006, dated 2012).

Data set [1] has as its target T1, aldosterone synthase (CYP11B2) (Homo sapiens, UniProt P19099).
T1 construct: host or cells: NCI-H295R
T1 sequence (P19099 25-503): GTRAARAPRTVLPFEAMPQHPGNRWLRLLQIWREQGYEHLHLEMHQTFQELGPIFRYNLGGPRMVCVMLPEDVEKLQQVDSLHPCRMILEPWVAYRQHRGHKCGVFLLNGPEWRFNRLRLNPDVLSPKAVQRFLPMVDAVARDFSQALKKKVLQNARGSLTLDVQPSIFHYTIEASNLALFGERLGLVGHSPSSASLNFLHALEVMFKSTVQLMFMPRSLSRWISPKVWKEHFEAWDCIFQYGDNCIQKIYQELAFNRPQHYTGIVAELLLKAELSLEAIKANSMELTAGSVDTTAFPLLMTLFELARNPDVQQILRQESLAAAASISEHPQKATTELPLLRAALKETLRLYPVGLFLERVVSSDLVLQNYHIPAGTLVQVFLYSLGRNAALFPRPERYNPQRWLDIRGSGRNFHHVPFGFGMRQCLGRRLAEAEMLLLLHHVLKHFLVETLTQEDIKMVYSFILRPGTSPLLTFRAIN
In words: In vitro aldosterone synthase inhibition: cellular aldosterone production in Ang II-stimulated NCI-H295R cells. Format: cell-based. To be noted: 1 μM Ang II, 24 hr. An excerpt:
In particular, the aldosterone synthase inhibitory activities in vitro can be determined by the following assay.
Human adrenocortical carcinoma NCI-H295R cell line is obtained from American Type Culture Collection (Manassas, Va.). Insulin/transferrin/selenium (ITS)-A supplement (100×), DMEM/F-12, antibiotic/antimycotic (100×), and fetal calf serum (FCS) are purchased from Gibco (Grand Island, N.Y.). Anti-mouse PVT scintillation proximity assay (SPA) beads and NBS 96-well plates are obtained from Amersham (Piscataway, N.J.) and Corning (Acton, Mass.), respectively. Solid black 96-well flat bottom plates are purchased from Costar (Corning, N.Y.). Aldosterone and angiotensin (Ang II) are purchased from Sigma (St. Louis, Mo.). D-[1,2,6,7-^3H(N)]aldosterone is acquired from PerkinElmer (Boston, Mass.). Nu-serum is a product of BD Biosciences (Franklin Lakes, N.J.).
For in vitro measurement of aldosterone activity, human adrenocortical carcinoma NCI-H295R cells are seeded in NBS 96-well plates at a density of 25,000 cells/well in 100 μl of a growth medium containing DMEM/F12 supplemented with 10% FCS, 2.5% Nu-serum, 1 μg ITS/ml, and 1× antibiotic/antimycotic. The medium is changed after culturing for 3 days at 37° C. under an atmosphere of 5% CO2/95% air. On the following day, cells are rinsed with 100 μl of DMEM/F12 and incubated with 100 μl of treatment medium containing 1 μM Ang II and a compound at different concentrations in quadruplicate wells at 37° C. for 24 hr. At the end of incubation, 50 μl of medium is withdrawn from each well for measurement of aldosterone production by an RIA using mouse anti-aldosterone monoclonal antibodies.
Measurement of aldosterone activity can also be performed using a 96-well plate format. Each test sample is incubated with 0.02 μCi of D-[1,2,6,7-^3H(N)]aldosterone and 0.3 μg of anti-aldosterone antibody in phosphate-buffered saline (PBS) containing 0.1% Triton X-100, 0.1% bovine serum albumin, and 12% glycerol in a total volume of 200 μl at room temperature for 1 hr. Anti-mouse PVT SPA beads (50 μl) are then added to each well and incubated overnight at room temperature prior to counting in a Microbeta plate counter. The amount of aldosterone in each sample is calculated by comparing with a standard curve generated using known quantities of the hormone.

The target in the next data set is T2, CYP11B1 (Homo sapiens, UniProt P15538).
T2 construct: Thus, the NCI-H295R cells have Cyp11 B1 (steroid 11 p-hydroxylase); host or cells: NCI-H295R
T2 sequence (P15538 25-503): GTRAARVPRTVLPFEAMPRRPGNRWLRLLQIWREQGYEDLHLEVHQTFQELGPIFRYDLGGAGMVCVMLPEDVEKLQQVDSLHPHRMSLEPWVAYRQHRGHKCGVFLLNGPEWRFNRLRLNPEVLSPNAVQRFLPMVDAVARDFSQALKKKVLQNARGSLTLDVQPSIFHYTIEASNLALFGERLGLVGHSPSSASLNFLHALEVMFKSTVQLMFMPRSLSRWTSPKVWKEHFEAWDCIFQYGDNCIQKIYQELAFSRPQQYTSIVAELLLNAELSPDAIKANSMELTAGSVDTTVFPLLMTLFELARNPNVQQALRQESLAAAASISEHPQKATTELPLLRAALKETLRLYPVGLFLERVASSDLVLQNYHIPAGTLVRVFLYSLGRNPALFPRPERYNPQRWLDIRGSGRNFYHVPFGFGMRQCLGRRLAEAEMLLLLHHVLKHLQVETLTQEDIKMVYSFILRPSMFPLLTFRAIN
Nature of the data set: In vitro CYP11B1 inhibition in NCI-H295R cells (steroid release, radioimmunoassay). It is filed as cell-based. The note with it: I %: percentage of inhibition; for inhibition at 0.1 µM: NCI-H295R, 100 nM. An excerpt:
The in vitro inhibitory activities for CYP11B1 can be determined by the following assay.
The cell line NCI-H295R was originally isolated from an adrenocortical carcinoma and has been characterized in the literature through the stimulable secretion of steroid hormones and the presence of the enzymes essential for steroidogenesis. Thus, the NCI-H295R cells have Cyp11 B1 (steroid 11 p-hydroxylase). The cells show the physiological property of zonally undifferentiated human foetal adrenocortical cells which, however, have the capacity to produce the steroid hormones which are formed in the three, phenotypically distinguishable zones in the adult adrenal cortex. The NCI-H295R cells (American Type Culture Collection, ATCC, Rockville, Md., USA) are grown in Dulbeoco's Modified Eagle'Ham F-12 Medium (DME/F12), which has been I supplemented with Ulroser SF Serum(Soprachem, Cergy-Saint-Christophe, France), insulin, transferrin, selenite (1-T-S, Becton Dickinson Biosiences, Franklin lakes, NJ, USA) and antibiotics in 75 cm^2 cell culture vessels at 37° C. and in a 95% air-5% carbon dioxide atmosphere. The cells are subsequently transferred for colony formation into a 24-well incubation vessel. They are cultivated there in DME/F12 medium, which is now supplemented with 0.1% bovine serum instead of Ultroser SF for 24 hours. The experiment is initiated by cultivating the cells in DME/F12 medium which is supplemented with 0.1% bovine serum albumin and test compound, in the presence or absence of cell stimulants, for 72 hours. The test substance is added in a concentration range from 0.2 nanomolar to […]. Cell stimulants which can be used are angiotensin 11 ([…] or 100 nanomolar), potassium ions (16 millimolar), forskolin (10 micromolar) or a combination of two stimulants.
The excretion of aldosterone, cortisol, corticosterone and estradiol/estrone into the culture medium can be detected and quantified by commercially available, specific monoclonal antibodies in radioimmunoassays in accordance with the manufacturers instructions.
Inhibition of the release of certain steroids can be used as a measure of the respective enzyme inhibition by the added test compounds. The dose-dependent inhibition of enzymic activity by a compound is calculated by means of an inhibition plot which is characterized by an IC50.
The IC50 values for active test compounds are ascertained by a simple linear regression analysis in order to construct inhibition plots without data weighting. The inhibition plot is calculated by fitting a 4-parameter logistic function to the raw data points using the least squares method. The equation of the 4-parameter logistic function is calculated as follows: Y=(d−a)/((1+(x/c)b))+a I where: a=minimum data level b=gradient I c=ICED, d=maximum data level x=inhibitor concentration.

pIC50: −log10 of the molar value.

As to “3-(3,3-dimethyl-1-oxo-isochroman-4-yl)-3H-imidazole-4-carbaldehyde oxime (trans) [Entry 5]”, the negative logarithm of the IC50 (pIC50) in data set [1] was 7.33. The “CYP11B1 % I (100 nM)” value at CYP11B1 was found to be 97%.

In the case of `CCOCc1cncn1C1c2ccccc2C(=O)OC1(C)C` (single isomer, unassigned) [Entry 8, 4-(5-ethoxymethyl-imidazol-1-yl)-3,3-dimethyl-isochroman-1-one], the pIC50 in data set [1] was 7.77. At CYP11B1, the inhibition at 0.1 µM turned out to be 100%.

In data set [1], `COC(=O)c1cncn1C1c2ccccc2C(=O)N(C)C1(C)C` (racemic) [Entry 11, 3-(2,3,3-trimethyl-1-oxo-1,2,3,4-tetrahydro-isoquinolin-4-yl)-3H-imidazole-4-carboxylic acid methyl ester] showed a negative logarithm of the IC50 (pIC50) of 7.14. The inhibition at 0.1 µM on CYP11B1 came out at 95%.

Turning to `Cc1noc(-c2cncn2C2c3ccccc3C(=O)OC2(C)C)n1` (racemic) [Entry 4, 3,3-dimethyl-4-[5-(3-methyl-[1,2,4]oxadiazol-5-yl)imidazol-1-yl]-isochroman-1-one], in data set [1], the negative logarithm of the IC50 (pIC50) is 6.73. In addition, the inhibition at 0.1 µM at CYP11B1 was 100%.

In data set [1], `C=Cc1cncn1C1c2ccccc2C(=O)OC1(C)C` (single isomer, unassigned) [Entry 7, 4-(5-vinyl-imidazol-1-yl)-3,3-dimethyl-isochroman-1-one] gave a negative logarithm of the IC50 (pIC50) of 7.66. Further, the inhibition at 0.1 µM on CYP11B1 is 100%.

The compound `CCc1cncn1C1c2ccccc2C(=O)OC12CCC2` (stereo not shown) [Example 1(f), [4-(5-ethyl-imidazol-1-yl)-isochroman-1-one]-3-spirocyclobutane] gave a melting point of 178 to 179 °C.

As to `CCc1cncn1C1c2ccccc2C(=O)OC12CCOCC2` (racemic) [Entry 10, [4-(5-ethyl-imidazol-1-yl)-isochroman-1-one]-3-spiro(4-tetrahydropyran)], the negative-log IC50 (pIC50) in data set [1] is 6.50. The inhibition at 0.1 µM at CYP11B1 is 90%.

Regarding `CC1(C)OC(=O)c2ccccc2C1n1cncc1C(=O)Oc1ccccc1` (single isomer, unassigned) [Entry 3, 3-(3,3-dimethyl-1-oxo-isochroman-4-yl)-3H-imidazole-4-carboxylic acid phenyl ester], the negative logarithm of the IC50 (pIC50) in data set [1] was 8.52. Besides, the inhibition at 0.1 µM on CYP11B1 turned out to be 97%.

As to `COC(=O)c1cncn1C1c2ccccc2C(=O)OC1(C)C` (single isomer, unassigned) [Entry 1, 3-(3,3-dimethyl-1-oxo-isochroman-4-yl)-3H-imidazole-4-carboxylic acid methyl ester], in data set [1], the pIC50 was 7.62. At CYP11B1, the inhibition at 0.1 µM was 100%.

`COC(=O)c1cncn1C1c2ccccc2C(=O)N(C2CC2)C1(C)C` (racemic) [Entry 12, 3-(2-cyclopropyl-3,3-dimethyl-1-oxo-1,2,3,4-tetrahydro-isoquinolin-4-yl)-3H-imidazole-4-carboxylic acid methyl ester] showed a pIC50 in data set [1] of 6.28. Also, at CYP11B1, the inhibition at 0.1 µM turned out to be 77%.

In data set [1], `CCc1cncn1C1c2ccccc2C(=O)OC12CCC2` (single isomer, unassigned) [Entry 9, [4-(5-ethyl-imidazol-1-yl)-isochroman-1-one]-3-spirocyclobutane] showed a pIC50 of 8.15. Besides, the inhibition at 0.1 µM on CYP11B1 was 100%.

Turning to `CCCCc1cncn1C1c2ccccc2C(=O)OC1(C)C` (racemic) [Entry 6, 4-(5-butyl-imidazol-1-yl)-3,3-dimethyl-isochroman-1-one], the negative-log IC50 (pIC50) in data set [1] is 8.22. Further, the inhibition at 0.1 µM at CYP11B1 was 100%.

In data set [1], `CCOC(=O)c1cncn1C1c2ccccc2C(=O)OC1(C)C` (single isomer, unassigned) [Entry 2, 3-(3,3-dimethyl-1-oxo-isochroman-4-yl)-3H-imidazole-4-carboxylic acid ethyl ester] had a negative-log IC50 (pIC50) of 8.52. Besides, the inhibition at 0.1 µM at CYP11B1 worked out at 94%.

By pIC50 is commonly meant the negative decadic logarithm of the IC50, by convention in mol/L. High values mean a low IC50, low ones a high IC50. Broadly, the inhibition is the percentage by which the read-out fell short of the control. By melting point is commonly meant the temperature, or range, at which the solid turns liquid.
